Assay results as given in patent US20100222396A1 (Novartis AG, priority 2009, published 2010).
pKd: −log10 of the molar value.

Key:
[1] = target: T1, human orexin 2 receptor (hOx2R) (Homo sapiens, UniProt O43614); test: Radioligand binding assay ([125I]orexin A competition), hOx2R; details: CHO or HEK cell membranes, 1 h room temperature
T1 construct: expressed in transfected cells
T1 sequence (O43614 1-444): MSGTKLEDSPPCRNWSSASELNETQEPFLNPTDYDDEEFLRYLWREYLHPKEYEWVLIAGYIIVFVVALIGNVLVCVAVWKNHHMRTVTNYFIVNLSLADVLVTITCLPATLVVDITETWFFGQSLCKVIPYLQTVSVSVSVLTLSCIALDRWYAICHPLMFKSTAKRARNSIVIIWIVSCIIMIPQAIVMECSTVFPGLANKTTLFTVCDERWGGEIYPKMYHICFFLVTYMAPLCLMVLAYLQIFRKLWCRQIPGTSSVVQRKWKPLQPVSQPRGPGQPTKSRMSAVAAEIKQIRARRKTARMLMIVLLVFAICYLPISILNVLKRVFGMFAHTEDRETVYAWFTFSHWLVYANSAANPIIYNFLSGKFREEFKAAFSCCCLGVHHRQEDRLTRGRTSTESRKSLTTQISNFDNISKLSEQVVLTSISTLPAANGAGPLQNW
How it was run: (§1)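 Membranes from CHO or HEK cells expressing the human receptor, incubated 1 h at room temperature with […] [125I]orexin A and compound in HEPES pH 7.5 buffer with BSA, MgCl2, CaCl2 and tween.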

[2] = target: T2, human orexin 1 receptor (hOx1R) (Homo sapiens, UniProt O43613); test: Radioligand binding assay ([125I]orexin A competition), hOx1R; details: CHO or HEK cell membranes, 1 h room temperature
T2 construct: expressed in transfected cells
T2 sequence (O43613 1-425): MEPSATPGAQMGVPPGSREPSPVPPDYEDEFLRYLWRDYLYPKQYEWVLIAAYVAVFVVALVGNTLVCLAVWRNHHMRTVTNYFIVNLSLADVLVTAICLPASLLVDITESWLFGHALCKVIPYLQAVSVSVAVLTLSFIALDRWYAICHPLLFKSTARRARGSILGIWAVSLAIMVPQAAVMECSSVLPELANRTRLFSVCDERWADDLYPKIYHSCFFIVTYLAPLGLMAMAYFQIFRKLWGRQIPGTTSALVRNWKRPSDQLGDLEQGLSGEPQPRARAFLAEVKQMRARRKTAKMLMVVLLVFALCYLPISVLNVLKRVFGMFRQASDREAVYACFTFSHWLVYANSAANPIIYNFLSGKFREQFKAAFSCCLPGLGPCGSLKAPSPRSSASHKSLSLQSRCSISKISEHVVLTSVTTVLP
How it was run: as §1

[3] = target: T2, human orexin 1 receptor (hOx1R); test: Calcium accumulation in cells (FLIPR), antagonism of orexin A, hOx1R; type: cell-based; details: for inhibition at 10 µM: measured at a concentration of 10 μM of compound (cells marked ^a); for pKd: cells expressing human orexin 1 receptor, IC50 vs orexin A converted by Cheng and Prusoff correction
How it was run: (§2)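 Serum-starved receptor-expressing cells were loaded with Fluo-4-AM (2 μM) plus probenecid (0.1 mM) in HEPES buffer, pH 7.4, with 1% BSA, and Ca2+ fluorescence was read on FLIPR. Compounds (10^−9–10^−5 M) were added first, and orexin A was added one hour later to measure antagonism.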

[4] = target: T1, human orexin 2 receptor (hOx2R); test: Calcium accumulation in cells (FLIPR), antagonism of orexin A, hOx2R; type: cell-based; details: for pKd: cells expressing human orexin 2 receptor, IC50 vs orexin A converted by Cheng and Prusoff correction
How it was run: as §2

SMILES	pKd [1]	pKd [2]	inhibition at 10 µM [3]	pKd [4]	pKd [3]	inhibition at 10 µM ([4]; measured at a concentration of 10 μM of compound (cells marked ^a))
CN(C(=O)c1ccc2ccccc2c1)[C@H](CCNC(=O)c1ccccn1)Cc1ccc(F)cc1 [Example 58, Pyridine-2-carboxylic acid {(S)-4-(4-fluoro-phenyl)-3-[methyl-(naphthalene-2-carbonyl)-amino]-butyl}-amide]	5.46	5.64	1%	5.97		
CN(C(=O)c1ccc2c(c1)OCO2)[C@H](CCNC(=O)c1cc2ccccc2[nH]1)Cc1ccccc1 [Example 14, 1H-Indole-2-carboxylic acid {(S)-3-[(benzo[1,3]dioxole-5-carbonyl)-methyl-amino]-4-phenyl-butyl}-amide]	6.28	5.97		6.97	6.22	
CN(C(=O)c1ccc2c(c1)CCN2)[C@H](CCNC(=O)c1ccccn1)Cc1ccccc1 [Example 23, 2,3-Dihydro-1H-indole-5-carboxylic acid {(S)-1-benzyl-3-[(pyridine-2-carbonyl)-amino]-propyl}-methyl-amide]	6.58	7.28		6.38	6.82	
CCCN(C(=O)c1cccc2c1OCO2)[C@H](CCNC(=O)c1ccccn1)Cc1ccccc1 [Example 59, Pyridine-2-carboxylic acid {(S)-3-[(benzo[1,3]dioxole-4-carbonyl)-propyl-amino]-4-phenyl-butyl}-amide]	5.44	5.44		6.25	5.69	
COc1cccc(C(=O)N(C)[C@H](CCNC(=O)c2nc3ccccc3n2C)Cc2ccccc2)c1 [Example 79, 1-Methyl-1H-benzoimidazole-2-carboxylic acid {(S)-3-[(3-methoxy-benzoyl)-methyl-amino]-4-phenyl-butyl}-amide]	7.52	7.14		7.92	6.65	
COc1cccc(C(=O)N(C)[C@H](CCNC(=O)c2ccccn2)Cc2ccccc2)c1 [Example 52, Pyridine-2-carboxylic acid {(S)-3-[(3-methoxy-benzoyl)-methyl-amino]-4-phenyl-butyl}-amide]	6.02	5.62		6.04	6.33	
CN(C(=O)c1cccc2c1OCC2)[C@H](CCNC(=O)c1ccccn1)Cc1ccccc1 [Example 46, Pyridine-2-carboxylic acid {(8)-3-[(2,3-dihydro-benzofuran-7-carbonyl)-methyl-amino]-4-phenyl-butyl}-amide]	6.06	6.40		6.00	5.74	
Cc1cc(F)cc(C(=O)N(C)[C@H](CCNC(=O)c2cccn2C)Cc2ccccc2)c1 [Example 124, 1-Methyl-1H-pyrrole-2-carboxylic acid {(S)-3-[(3-fluoro-5-methyl-benzoyl)-methyl-amino]-4-phenyl-butyl}-amide]	7.41	6.22		7.89	6.15	
CN(C(=O)c1cccc2cc[nH]c12)[C@H](CCNC(=O)c1ccccn1)Cc1ccccc1 [Example 38, 1H-Indole-7-carboxylic acid {(S)-1-benzyl-3-[(pyridine-2-carbonyl)-amino]-propyl}-methyl-amide]	6.23	7.07		6.79	7.46	
CCOc1cccc(C(=O)N(C)[C@H](CCNC(=O)c2cccn2C)Cc2ccccc2)c1 [Example 121, 1-Methyl-1H-pyrrole-2-carboxylic acid {(S)-3-[(3-ethoxy-benzoyl)-methyl-amino]-4-phenyl-butyl}-amide]	8.10	6.69		8.70	6.16	
CN(C(=O)c1ccc2c(c1)OCO2)[C@H](CCNC(=O)c1ccccn1)Cc1ccc(F)cc1 [Example 51, Pyridine-2-carboxylic acid [(S)-3-[(benzo[1,3]dioxole-5-carbonyl)-methyl-amino]-4-(4-fluoro-phenyl)-butyl]-amide]	5.94	5.45	16%	6.10		
CN(C(=O)c1ccc(Br)cc1)[C@H](CCNC(=O)c1ccccn1)Cc1ccccc1 [Example 99, Pyridine-2-carboxylic acid {(S)-3-[(4-bromo-benzoyl)-methyl-amino]-4-phenyl-butyl}-amide]	6.09	5.71		6.94	5.95	
CN(C(=O)c1cccc2c1OCO2)[C@H](CCNC(=O)c1nc2ccccc2n1C)Cc1ccccc1 [Example 19, 1-Methyl-1H-benzoimidazole-2-carboxylic acid {(8)-3-[(benzo[1,3]dioxole-4-carbonyl)-methyl-amino]-4-phenyl-butyl}-amide]	6.88	6.10		6.94	5.95	
CN(C(=O)c1ccc2ccccc2c1)[C@H](CCNC(=O)c1ccccn1)Cc1ccccc1 [Example 21, Pyridine-2-carboxylic acid {(S)-3-[methyl-(naphthalene-2-carbonyl)-amino]-4-phenyl-butyl}-amide]	6.69	7.21		6.76	7.15	
CN(C(=O)c1ccc2c(c1)OCO2)[C@H](CCNC(=O)c1ccc2c(c1)OCO2)Cc1ccccc1 [Example 62, Benzo[1,3]dioxole-5-carboxylic acid {(S)-3-[(benzo[1,3]dioxole-5-carbonyl)-amino]-1-benzyl-propyl}-methyl-amide]	7.33	6.65		7.66	6.06	
CN(C(=O)c1cccc2c1ccn2C)[C@H](CCNC(=O)c1ccccn1)Cc1ccccc1 [Example 40, 1-Methyl-1H-indole-4-carboxylic acid {(S)-1-benzyl-3-[(pyridine-2-carbonyl)-amino]-propyl}-methyl-amide]	6.21	6.90		6.66	6.71	
CN(C(=O)c1ccccc1)[C@H](CCNC(=O)c1ccccn1)Cc1ccc(F)cc1 [Example 66, Pyridine-2-carboxylic acid [(S)-3-(benzoyl-methyl-amino)-4-(4-fluoro-phenyl)-butyl]-amide]	5.15	< 5.00	0%			33%
CCCN(C(=O)c1ccc2c(c1)OCO2)[C@H](CCNC(=O)c1ccccn1)Cc1ccccc1 [Example 13, Pyridine-2-carboxylic acid {(S)-3-[(benzo[1,3]dioxole-5-carbonyl)-propyl-amino]-4-phenyl-butyl}-amide]	6.97	6.09		7.13	5.66	
CN(C(=O)c1ccc2c(c1)OCO2)[C@H](CCNC(=O)c1ccccn1)Cc1ccc(Cl)cc1 [Example 25, Pyridine-2-carboxylic acid [(S)-3-[(benzo[1,3]dioxole-5-carbonyl)-methyl-amino]-4-(4-chloro-phenyl)-butyl]-amide]	6.51	5.65		7.44	6.00	
CN(C(=O)c1cccc(Br)c1)[C@H](CCNC(=O)c1nc2ccccc2n1C)Cc1ccccc1 [Example 102, 1-Methyl-1H-benzoimidazole-2-carboxylic acid {(S)-3-[(3-bromo-benzoyl)-methyl-amino]-4-phenyl-butyl}-amide]	8.70	7.55		9.00	7.74	
CN(C(=O)c1cccc2[nH]ccc12)[C@H](CCNC(=O)c1ccccn1)Cc1ccccc1 [Example 11, 1H-Indole-4-carboxylic acid {(S)-1-benzyl-3-[(pyridine-2-carbonyl)-amino]-propyl}-methyl-amide]	7.28	7.68		7.80	7.66	
CN(C(=O)c1ccc2c(c1)CCO2)[C@H](CCNC(=O)c1ccccn1)Cc1ccccc1 [Example 29, Pyridine-2-carboxylic acid {(8)-3-[(2,3-dihydro-benzofuran-5-carbonyl)-methyl-amino]-4-phenyl-butyl}-amide]	6.43	6.29		6.80	5.66	
